Test results as given in patent US9738634B2, “Heterocyclic amide compound and herbicide” (SYNGENTA PARTICIPATIONS AG, priority 2013, dated 2017).

What was measured:
Type in all cases: in vivo
barnyard grass [1] = test: Test Example 1: weedkilling efficacy, preemergent weed treatment in the submerged state; A: barnyard grass; conditions: treatment dosage 252 g/ha
Method in brief: (§1)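 Pots of alluvial soil were flooded to a 4 cm depth. Mixed weed seeds were sown and 2.5 leaf-stage rice seedlings transplanted. On sowing day, water-diluted emulsion was applied to the water surface (dose in g/ha). After 3 weeks at 25–30 °C, effects were rated.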

bulrush [2] = test: Test Example 1: weedkilling efficacy, preemergent weed treatment in the submerged state; B: bulrush; conditions: treatment dosage 252 g/ha
Method in brief: as §1

oval-leafed pondweed [3] = test: Test Example 1: weedkilling efficacy, preemergent weed treatment in the submerged state; C: oval-leafed pondweed; conditions: treatment dosage 252 g/ha
Method in brief: as §1

transplanted rice = test: Test Example 1: preemergent weed treatment in the submerged state, effect on crop; a: transplanted rice; conditions: treatment dosage 252 g/ha
Method in brief: as §1

barnyard grass [4] = test: Test Example 2: weedkilling efficacy, growth period weed treatment in the submerged state; A: barnyard grass; conditions: treatment dosage 252 g/ha
Method in brief: (§2)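 Weeds treated at the 1-2 leaf stage by application of diluted emulsion onto floodwater (4 cm depth, alluvial soil) at specified g/ha. Grown in greenhouse at 25 to 30° C; herbicidal effect rated three weeks after treatment.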

bulrush [5] = test: Test Example 2: weedkilling efficacy, growth period weed treatment in the submerged state; B: bulrush; conditions: treatment dosage 252 g/ha
Method in brief: as §2

oval-leafed pondweed [6] = test: Test Example 2: weedkilling efficacy, growth period weed treatment in the submerged state; C: oval-leafed pondweed; conditions: treatment dosage 252 g/ha
Method in brief: as §2

crabgrass [7] = test: Test Example 3: weedkilling efficacy through soil treatment; D: crabgrass; conditions: treatment dosage 315 g/ha
Method in brief: (§3)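 Crop and weed responses were judged three weeks after a uniform surface spray of the water-diluted emulsion at the given g/ha rate. Seeds sat beneath about 1.5 cm of sterilized diluvial soil, and boxes stood in a greenhouse at 25 to 30° C.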

green foxtail [8] = test: Test Example 3: weedkilling efficacy through soil treatment; E: green foxtail; conditions: treatment dosage 315 g/ha
Method in brief: as §3

wild oat [9] = test: Test Example 3: weedkilling efficacy through soil treatment; G: wild oat; conditions: treatment dosage 315 g/ha
Method in brief: as §3

black-grass [10] = test: Test Example 3: weedkilling efficacy through soil treatment; H: black-grass; conditions: treatment dosage 315 g/ha
Method in brief: as §3

Italian ryegrass [11] = test: Test Example 3: weedkilling efficacy through soil treatment; I: Italian ryegrass; conditions: treatment dosage 315 g/ha
Method in brief: as §3

Indian mallow [12] = test: Test Example 3: weedkilling efficacy through soil treatment; K: Indian mallow; conditions: treatment dosage 315 g/ha
Method in brief: as §3

redroot pigweed [13] = test: Test Example 3: weedkilling efficacy through soil treatment; L: redroot pigweed; conditions: treatment dosage 315 g/ha
Method in brief: as §3

fig-leafed goosefoot [14] = test: Test Example 3: weedkilling efficacy through soil treatment; M: fig-leafed goosefoot; conditions: treatment dosage 315 g/ha
Method in brief: as §3

catchweed [15] = test: Test Example 3: weedkilling efficacy through soil treatment; O: catchweed; conditions: treatment dosage 315 g/ha
Method in brief: as §3

corn [16] = test: Test Example 3: soil treatment, effect on crop; c: corn; conditions: treatment dosage 315 g/ha
Method in brief: as §3

soybean [17] = test: Test Example 3: soil treatment, effect on crop; d: soybean; conditions: treatment dosage 315 g/ha
Method in brief: as §3

wheat [18] = test: Test Example 3: soil treatment, effect on crop; e: wheat; conditions: treatment dosage 315 g/ha
Method in brief: as §3

beet [19] = test: Test Example 3: soil treatment, effect on crop; f: beet; conditions: treatment dosage 315 g/ha
Method in brief: as §3

crabgrass [20] = test: Test Example 4: weedkilling efficacy by foliar treatment; D: crabgrass; conditions: treatment dosage 315 g/ha
Method in brief: (§4)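 Seeds are spot-sown into sterilized diluvial soil and covered with about 1.5 cm of soil. After 14 days' greenhouse growth at 25 to 30° C, plants are sprayed on stems and leaves with diluted emulsion at the stated g/ha rate, then scored at 3 weeks.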

green foxtail [21] = test: Test Example 4: weedkilling efficacy by foliar treatment; E: green foxtail; conditions: treatment dosage 315 g/ha
Method in brief: as §4

wild oat [22] = test: Test Example 4: weedkilling efficacy by foliar treatment; G: wild oat; conditions: treatment dosage 315 g/ha
Experimental: Testing of Weedkilling Efficacy by Foliar Treatment
Sterilized diluvial soil was introduced into 21 cm long, 13 cm wide, 7 cm deep plastic boxes, and seeds of crabgrass, green foxtail, barnyard grass, wild oat, black-grass, Italian ryegrass, common wind-grass, Indian mallow, redroot pigweed, fig-leafed goosefoot, chickweed, catchweed, birds-eye speedwell, corn, soybean, rice, wheat, beet and rapeseed were each spot-sown, and covered with about 1.5 cm of soil, then the plants were grown in a greenhouse at 25 to 30° C.
After they had grown for 14 days, emulsions of compounds of the present invention prepared according to compounding example 2 were diluted with water to give the specified dosages, and applied uniformly onto the stem and leaf parts with a small sprayer. 3 weeks after the pesticide treatment the effect on each type of plant was investigated on the basis of the assessment criteria of test example 1.
A: barnyard grass, B: bulrush, C: oval-leafed pondweed, D: crabgrass, E: green foxtail, F: barnyard grass, G: wild oat, H: black-grass, I: Italian ryegrass, J: common wind-grass, K: Indian mallow, L: redroot pigweed, M: fig-leafed goosefoot, N: chickweed, O: catchweed, p: birds-eye speedwell, a: transplanted rice, b: directly sown rice, c: corn, d: soybean, e: wheat, f: beet, g: rapeseed
Further, pesticide dosage (g/ha) indicates the concentration regulated such that treatment was with only the stated number of grams (g), when calculated per hectare (ha).

black-grass [23] = test: Test Example 4: weedkilling efficacy by foliar treatment; H: black-grass; conditions: treatment dosage 315 g/ha
Method in brief: as §4

Italian ryegrass [24] = test: Test Example 4: weedkilling efficacy by foliar treatment; I: Italian ryegrass; conditions: treatment dosage 315 g/ha
Method in brief: as §4

Indian mallow [25] = test: Test Example 4: weedkilling efficacy by foliar treatment; K: Indian mallow; conditions: treatment dosage 315 g/ha
Method in brief: as §4

redroot pigweed [26] = test: Test Example 4: weedkilling efficacy by foliar treatment; L: redroot pigweed; conditions: treatment dosage 315 g/ha
Method in brief: as §4

fig-leafed goosefoot [27] = test: Test Example 4: weedkilling efficacy by foliar treatment; M: fig-leafed goosefoot; conditions: treatment dosage 315 g/ha
Method in brief: as §4

chickweed = test: Test Example 4: weedkilling efficacy by foliar treatment; N: chickweed; conditions: treatment dosage 315 g/ha
Method in brief: as §4

catchweed [28] = test: Test Example 4: weedkilling efficacy by foliar treatment; O: catchweed; conditions: treatment dosage 315 g/ha
Method in brief: as §4

directly sown rice = test: Test Example 4: foliar treatment, effect on crop; b: directly sown rice; conditions: treatment dosage 315 g/ha
Method in brief: as §4

corn [29] = test: Test Example 4: foliar treatment, effect on crop; c: corn; conditions: treatment dosage 315 g/ha
Method in brief: as §4

soybean [30] = test: Test Example 4: foliar treatment, effect on crop; d: soybean; conditions: treatment dosage 315 g/ha
Method in brief: as §4

wheat [31] = test: Test Example 4: foliar treatment, effect on crop; e: wheat; conditions: treatment dosage 315 g/ha
Method in brief: as §4

beet [32] = test: Test Example 4: foliar treatment, effect on crop; f: beet; conditions: treatment dosage 315 g/ha
Method in brief: as §4

**Q.** With `CC1=C(c2ccccc2)C(=O)N(C(C)(C)C(=O)Nc2ccnc(C(F)(F)F)c2)CO1` [B-4-06] as the compound, how does the “A (barnyard grass) weedkilling efficacy grade” value (barnyard grass [1]) read?
**A.** 5 (weed kill ratio 90% or more, (practically complete withering))

**Q.** What about the “B (bulrush) weedkilling efficacy grade” value (bulrush [2]) of the same compound?
**A.** 5 (weed kill ratio 90% or more, (practically complete withering))

**Q.** What about the “C (oval-leafed pondweed) weedkilling efficacy grade” value (oval-leafed pondweed [3]) of the same compound?
**A.** 5 (weed kill ratio 90% or more, (practically complete withering))

**Q.** What about the “a (transplanted rice) effect on crop grade” value (transplanted rice) of the same compound?
**A.** 0 (weed kill ratio 5% or less (practically no effect))

**Q.** What about the “A (barnyard grass) weedkilling efficacy grade” value (barnyard grass [4]) of the same compound?
**A.** 4 (weed kill ratio 70% or more, less than 90%)

**Q.** What about the “B (bulrush) weedkilling efficacy grade” value (bulrush [5]) of the same compound?
**A.** 5 (weed kill ratio 90% or more, (practically complete withering))

**Q.** And the “C (oval-leafed pondweed) weedkilling efficacy grade” value (oval-leafed pondweed [6])?
**A.** 5 (weed kill ratio 90% or more, (practically complete withering))

**Q.** And the “D (crabgrass) weedkilling efficacy grade” value (crabgrass [7])?
**A.** 5 (weed kill ratio 90% or more, (practically complete withering))

**Q.** What about the “E (green foxtail) weedkilling efficacy grade” value (green foxtail [8]) of the same compound?
**A.** 5 (weed kill ratio 90% or more, (practically complete withering))

**Q.** What about the “G (wild oat) weedkilling efficacy grade” value (wild oat [9]) of the same compound?
**A.** 5 (weed kill ratio 90% or more, (practically complete withering))

**Q.** And the “H (black-grass) weedkilling efficacy grade” value (black-grass [10])?
**A.** 5 (weed kill ratio 90% or more, (practically complete withering))

**Q.** What about the “I (Italian ryegrass) weedkilling efficacy grade” value (Italian ryegrass [11]) of the same compound?
**A.** 5 (weed kill ratio 90% or more, (practically complete withering))

**Q.** What about the “K (Indian mallow) weedkilling efficacy grade” value (Indian mallow [12]) of the same compound?
**A.** 1 (weed kill ratio 5% or more, less than 20%)

**Q.** And the “L (redroot pigweed) weedkilling efficacy grade” value (redroot pigweed [13])?
**A.** 3 (weed kill ratio 40% or more, less than 70%)

**Q.** What about the “M (fig-leafed goosefoot) weedkilling efficacy grade” value (fig-leafed goosefoot [14]) of the same compound?
**A.** 4 (weed kill ratio 70% or more, less than 90%)

**Q.** What about the “O (catchweed) weedkilling efficacy grade” value (catchweed [15]) of the same compound?
**A.** 4 (weed kill ratio 70% or more, less than 90%)

**Q.** What about the “c (corn) effect on crop grade” value (corn [16]) of the same compound?
**A.** 2 (weed kill ratio 20% or more, less than 40%)

**Q.** And the “d (soybean) effect on crop grade” value (soybean [17])?
**A.** 0 (weed kill ratio 5% or less (practically no effect))

**Q.** And the “e (wheat) effect on crop grade” value (wheat [18])?
**A.** 3 (weed kill ratio 40% or more, less than 70%)

**Q.** What about the “f (beet) effect on crop grade” value (beet [19]) of the same compound?
**A.** 4 (weed kill ratio 70% or more, less than 90%)

**Q.** And the “D (crabgrass) weedkilling efficacy grade” value (crabgrass [20])?
**A.** 5 (weed kill ratio 90% or more, (practically complete withering))

**Q.** And the “E (green foxtail) weedkilling efficacy grade” value (green foxtail [21])?
**A.** 5 (weed kill ratio 90% or more, (practically complete withering))

**Q.** What about the “G (wild oat) weedkilling efficacy grade” value (wild oat [22]) of the same compound?
**A.** 5 (weed kill ratio 90% or more, (practically complete withering))

**Q.** And the “H (black-grass) weedkilling efficacy grade” value (black-grass [23])?
**A.** 5 (weed kill ratio 90% or more, (practically complete withering))

**Q.** And the “I (Italian ryegrass) weedkilling efficacy grade” value (Italian ryegrass [24])?
**A.** 5 (weed kill ratio 90% or more, (practically complete withering))

**Q.** And the “K (Indian mallow) weedkilling efficacy grade” value (Indian mallow [25])?
**A.** 3 (weed kill ratio 40% or more, less than 70%)

**Q.** And the “L (redroot pigweed) weedkilling efficacy grade” value (redroot pigweed [26])?
**A.** 4 (weed kill ratio 70% or more, less than 90%)

**Q.** What about the “M (fig-leafed goosefoot) weedkilling efficacy grade” value (fig-leafed goosefoot [27]) of the same compound?
**A.** 4 (weed kill ratio 70% or more, less than 90%)

**Q.** What about the “N (chickweed) weedkilling efficacy grade” value (chickweed) of the same compound?
**A.** 3 (weed kill ratio 40% or more, less than 70%)

**Q.** And the “O (catchweed) weedkilling efficacy grade” value (catchweed [28])?
**A.** 4 (weed kill ratio 70% or more, less than 90%)

**Q.** And the “b (directly sown rice) effect on crop grade” value (directly sown rice)?
**A.** 5 (weed kill ratio 90% or more, (practically complete withering))

**Q.** And the “c (corn) effect on crop grade” value (corn [29])?
**A.** 5 (weed kill ratio 90% or more, (practically complete withering))

**Q.** What about the “d (soybean) effect on crop grade” value (soybean [30]) of the same compound?
**A.** 4 (weed kill ratio 70% or more, less than 90%)

**Q.** What about the “e (wheat) effect on crop grade” value (wheat [31]) of the same compound?
**A.** 1 (weed kill ratio 5% or more, less than 20%)

**Q.** And the “f (beet) effect on crop grade” value (beet [32])?
**A.** 3 (weed kill ratio 40% or more, less than 70%)
